Each structure is given as a SMILES string.

Data set [1] has as its system 5-HT1 -like receptors. Conditions: in vitro and in vivo animal experiments; cited from earlier work.
The nature of data set [2]: clinical. Set-up: species or system healthy volunteers. Conditions: human, in vivo. The procedure: A double-blind, randomized, cross-over trial in healthy volunteers during four treatment days were set up. All volunteers (n=8) participated in the four sessions of the trial, in which the above formulation was tested. On each treatment day volunteers received a single intranasal administration of 1 mg of a formulation of (-)-(R)-N-[(3,4-dihydro-2H-1-benzopyran-2-yl)methyl]-N'-(1,4,5,6-tetrahydro-2-pyrimidinyl)-1,3-propanediamine dihydrochloride as described in example 1. Unidose nasal sprayers at a concentration of 10 mg/ml, which provided a volume of 100 μl per spray were used. The composition was administered to the volunteers as a single spray in one nostril. Blood was sampled over 24 hours for pharmacokinetic analysis. Venous 10 ml blood samples for drug analysis were taken at 0, 5, 10, 20, 30, 60, 90, 120, 240 and 360 minutes and 24 hours after drug administration. The blood samples were transferred to heparinized tubes and centrifuged within 30 minutes after collection. Separated plasma was transferred to polystyrene tubes adequately labelled with the trial number, subject number and initials, time and date of sampling.
Concentrations of (-)-(R)-N-[(3,4-dihydro-2H-1-benzopyran -2-yl)methyl]-N'-(1,4,5,6-tetrahydro-2-pyrimidinyl)-1,3-propanediamine dihydrochloride were determined by radio immunoassay. […]

In the case of `c1ccc2c(c1)CCC(CNCCCNC1=NCCCN1)O2` (stereo not drawn) [N-[(3,4-dihydro-2H-1-benzopyran-2-yl)methyl]-N'-(1,4,5,6-tetrahydro-2-pyrimidinyl)-1,3-propanediamine], in data set [1], the “arterial vasoconstrictor response arises through activation of 5-HT1 -like receptors” value is listed as “agonistic activation of 5-HT1 -like receptors” and the vasoconstrictory properties entry is given as “highly vasoconstrictory properties”.

As for `Cl.Cl.c1ccc2c(c1)CC[C@H](CNCCCNC1=NCCCN1)O2` [active ingredient, (-)-(R)-N-[(3,4-dihydro-2H-1-benzopyran-2-yl)methyl]-N'-(1,4,5,6-tetrahydro-2-pyrimidinyl)-1,3-propanediamine dihydrochloride], in data set [2], the bioavailability (commonly the share of a dose that reaches the circulation, judged against a reference dose that is usually intravenous) at 24 h was about 35%.

The values above are taken from patent US6054462A, “Intranasal antimigraine compositions” (Janssen Pharmaceutica, N.V., priority 1994, dated 2000).
